Test results published in patent publication US20260284076A1, “TESTOSTERONE AND DIFLUOROMETHYLORNITHINE COMBINATION THERAPY FOR PROSTATE CANCER” (The Johns Hopkins University, priority 2023, published 2026).
Entries after “also recorded” stand apart in the source; their conditions may differ. Where a name gives a salt, the structure may show the parent alone.

What was measured:
[1] = system: AMD1 transcript in LNCaP cells; test: AMD1 transcript stability after actinomycin, RT-PCR; assay type: cell-based, human
[2] = system: LNCaP cells; test: RNAseq of treated LNCaP cells; assay type: cell-based, human; details: 96 hours
Description: Overlap of differentially expressed transcripts occurring due to treatment as per (FIG. 27A). […] Change in RNA transcript abundance of genes located with the 8q24 topologically associated domain (TAD) in LNCaP cells treated as per (FIG. 27A).

[3] = system: hypusinated eIF5A in PCa cell lines; test: Total and hypusinated eIF5A by western blot; assay type: cell-based, human
Description: (§1) FIG. 5A, FIG. 5B, FIG. 5C, FIG. 5D, and FIG. 5E show: FIG. 5A, MYC expression by IHC in a metastatic tumor biopsy from a patient before and after 3 months of BAT. FIG. 5B, Quantification of MYC protein expression from metastatic tumor biopsies from patients before and after 3 months of BAT color-coded by response (non-responder NR; responder R). […] Vinculin was used as a loading control. FIG. 5D, Principal component analysis of RNA and ATAC sequencing of LNCaP cells treated for 5 days with R1881 10 nM (SPA). […] Vinculin was used as a loading control;
FIG. 24A. Schematic highlighting generation of hypusinated eIF5A from spermidine. […] Vinculin is used as a loading control. Representative blots of n=2 independent experiments;

[4] = system: MYC in LNCaP and VCaP cells; test: MYC expression by western blot, RT-PCR, RNAseq; assay type: cell-based, human; details: R1881 10 nM, DFMO 5 mM, 96 hours; monohydrochloride, monohydrate
Description: as §1

[5] = cited from earlier work
[6] = system: VCaP cells; test: Colony formation (clonal survival); assay type: cell-based, human; details: with or without R1881 0.5 nM, 96 hours, colonies at 14 days; monohydrochloride, monohydrate
Description: (§2) FIG. 3A. […] Ns, not significant. FIG. 3B. […] Ns, not significant. FIG. 3C. […] P values by ANOVA;

[7] = system: LNCaP cells; test: Colony formation (clonal survival); assay type: cell-based, human; details: with or without R1881 0.5 nM, 96 hours, colonies at 14 days; monohydrochloride, monohydrate
Description: as §2

[8] = system: chronically castrated patients with rising PSA and CRPC; test: Pilot study of BAT with oral etoposide, then second line therapy post-BAT; assay type: in vivo, human; details: post-BAT
Description: Based on the preclinical results and potential mechanisms for growth inhibition that include androgen-induced double strand breaks and stabilization of AR preventing relicensing, we have conducted a pilot study evaluating the efficacy and safety of pharmacologic doses of testosterone to produce high dose T levels in conjunction with oral etoposide in chronically castrated patients with rising PSA and CRPC (37). Patients who had been continuously castrate for more than one year with minimal metastatic disease burden (≤5 total bone metastases and ≤10 total sites of metastases) and/or rising PSA were eligible. To achieve rapid cycling between high dose and near castrate serum T (i.e., BAT) patients received intramuscular injection of 400 mg testosterone cypionate every 28 days. For the first 3 cycles of therapy patients received BAT plus oral etoposide 100 mg po/day days 1-14 of a 28-day cycle. After 3 cycles PSA response and objective response were assessed. Those patients with a PSA that was declining from peak levels and no objective evidence of disease progression or worsening pain were continued on therapy. Given the toxicity associated with etoposide and the lack of clinical response in an earlier trial (38), patients who responded after 3 cycles of testosterone plus etoposide were continued on testosterone alone based on protocol amendment.

[9] = system: patients with CRPC progressing on Enza (Cohort A) or Abi (Cohort B); assay type: in vivo, human; details: re-exposed to agent progressed on before BAT
Description: The RESTORE study (NCT02090114) was an NIH sponsored Phase II study designed to assess the safety and efficacy of BAT in patients (n=30 per cohort) with CRPC progressing on Enza (Cohort A) or Abi (Cohort B), FIG. 18A (34,39). The primary endpoint of the first part of the study was to assess PSA response to BAT. Secondary endpoints included objective response, safety, and quality of life. The second part of the study was to determine in BAT could re-sensitize patients to repeat exposure to second line therapy that patients were progressing on prior to receiving BAT. Thus, patients progressing on Enza were re-exposed to Enza after BAT and similarly for Abi. Both arms of this study met the primary endpoint. PSA50 response to BAT was 30% in patient's post-Enza and 18% post-Abi, FIG. 18B. […] Overall duration of response to BAT and duration of response to re-exposure was longer in the post-Enza vs. post-Abi cohort. The PSAso response to re-exposure to Enza was 71% vs. only 21% for patients re-exposed to Abi, FIG. 19B (7). A third cohort was later added (Cohort C) for patients progressing on ADT alone. Overall, 90 patients were treated on this study over a 4-year period (2014-2018).

[10] = system: CRPC post docetaxel; details: post-docetaxel setting; cited from earlier work
[11] = system: CRPC; details: post-abiraterone, pre-chemotherapy setting; cited from earlier work
[12] = system: asymptomatic patients with CRPC progressing on Abi; test: TRANSFORMER randomized Phase II study, BAT vs. Enza with crossover; assay type: in vivo, human
Experimental: The TRANSFORMER study (NCT02286921) was a DOD-sponsored randomized Phase II study designed to compare the efficacy of BAT vs. Enza in asymptomatic patients with CRPC progressing on Abi, FIG. 19A (2). The study was conducted at 17 academic centers across the US. The study was coordinated by the Prostate Cancer Disease Group clinical research team at Johns Hopkins, who performed regulatory oversight, study/site monitoring, and data analyses. From 2015-2018, 195 patients underwent 1:1 randomization to either standard dose Enza (n=101) or BAT (n=94) at 400 mg IM every 28 days. The primary endpoint was clinical/radiographic PFS. At time of progression, patients were given the option to crossover to the alternate therapy. The trial was designed to show a 50% improvement in the primary endpoint for BAT vs. Enza. […] Objective response was 24.4% for BAT and 4.2% for Enza (p=0.067). Best PSA50 was 26.4% for BAT and 25.5% for Enza (p=0.697).
At time of progression, 46 (49%) of patients on the Enza arm crossed over to receive BAT and 34 (33.7%) crossed over from BAT to receive Enza and were available for analysis. Remarkably, the PSAso response for patients who received Enza after BAT was 72.7% compared to 25.5% for patients receiving Enza immediately after Abi, FIG. 19D. Objective response in the Enza post-BAT patients was 28.6% compared to 4.2% post-Abi, FIG. 19B. […] The logical extension of these findings and the hypothesis of this proposal is that patients are likely to respond again to further repeat cycles of BAT and Enza, but this treatment strategy has yet to be explored in the clinical trial setting.

[13] = system: metastatic CRPC, pre-chemotherapy setting; details: cited from earlier work
[14] = system: human T lymphocytes; details: CD3/CD28-stimulated cells, 24 hours, 5 donors
Experimental: Protein expression of ODC and AR by western blot of human T cells cultured for 24 hours with vehicle control (EtOH 0.1%), SPA, or enzalutamide (ENZA; 10 μM) in the presence of no stimulation or CD3- and CD28-stimulation with dynabeads. Vinculin is used a loading control. FIG. 22J. Quantification of protein expression of ODC by western blot as per (FIG. 22I), displaying data from independent experiments of 5 different donors with indicated sex. P values by unpaired 2-tailed t test;
To assess whether AR regulates expression of polyamine synthesis enzymes in cells beyond prostate, we isolated human T lymphocytes from peripheral blood of 5 donors, treated unstimulated or CD3/CD28-stimulated cells with vehicle control, SPA, or the AR inhibitor enzalutamide for 24 hours, and measured ODC.

NCCCC(N)(C(=O)O)C(F)F (stereo not shown) [DFMO, 2-(difluoromethyl)-ornithine, monohydrochloride, monohydrate]
half-life of AMD1 transcript ([1]; 96 hours treatment then actinomycin 5 μg/mL): > 8 h
stability of AMD1 transcript ([1]; monohydrochloride, monohydrate): markedly increased stability; also recorded: stabilizes
differentially expressed transcripts vs VEH [2]: fewer
eIF5A hypusination [3]: marked reduction
MYC expression [4]: reduced; also recorded: enhances downregulation of MYC by SPA
side-effects of high doses ([5]; high doses): reversible ototoxicity and myelosuppression
chemoprevention trials of breast and cervix cancer ([5]; human, in vivo): negative
doses not consistently associated with ototoxicity and myelosuppression ([5]; human, in vivo): less than 1 g/m2/d
prostate polyamine levels and prostate growth ([5]; over one year): can reduce prostate polyamine levels and the rate of growth of the prostate
clonal survival / colony formation [6]: inhibited clonal survival to a greater extent in R1881-treated cells than vehicle control-treated cells; also recorded: decreased colony formation
clonal survival / colony formation [7]: decreased colony formation

CNC(=O)c1ccc(N2C(=S)N(c3ccc(C#N)c(C(F)(F)F)c3)C(=O)C2(C)C)cc1F [Enzalutamide, 4-{3-[4-cyano-3-(trifluoromethyl)phenyl]-5,5dimethyl-4-oxo-2-sulfanylideneimidazolidin-1-yl}-2-fluoro-N-methylbenzamide]
patients with >50% PSA decline on second line therapy [8]: 3/4
PSA decline upon re-challenge ([8]; agent previously progressed on): 53.2%
PSA50 response to re-exposure (re-challenge) post-BAT [9]: 71%
improvement in survival [10]: approximately 5 months
median rPFS [11]: ≤ 6 months
PSA50 response ([12]; Enza after BAT (crossover), listed as Enza): 72.7%
PSA50 response ([12]; Enza after BAT (crossover), listed as enzalutamide): 78%
Time to PSA progression ([12]; Enza immediately post-Abi, without prior BAT): 3.8 months
Objective response ([12]; Enza post-BAT): 28.6%
Time to PSA progression ([12]; Enza post-BAT): 10.9 months
overall survival ([12]; enzalutamide after prior BAT): 37 months
overall survival ([12]; enzalutamide without prior BAT): 29 months
PSA50 response ([12]; initial treatment immediately after Abi, no prior crossover, listed as Enza): 25.5%
PSA50 response ([12]; initial treatment immediately after Abi, no prior crossover, listed as enzalutamide): 25%
fold increase in time to PSA progression on Enza ([12]; post-BAT vs immediately post-Abi): ~3 fold
clinical/radiographic PFS ([12]; randomized arms): 5.72 m
Objective response ([12]; randomized arms, post-Abi): 4.2%
hazard ratio, overall survival vs placebo ([13]; 95% CI 0.60 to 0.84): 0.71
median overall survival ([13]; PREVAIL, enzalutamide group): 32.4 months
>50% decline PSA (%) ([13]; PREVAIL): 78%
PSA PFS ([13]; PREVAIL): 11.2
TIP (m) ([13]; PREVAIL): 20 m
ODC protein [14]: decreased ODC in all donors
